Legend:
[1] = test system: Plasmodium falciparum; assay: Antiplasmodial activity against chloroquine-sensitive Plasmodium falciparum 3D7 infected in type B+ human erythrocytes assessed as inhibition of ring stage parasite after 18 hrs followed by incubation in drug-free medium for 48 hrs by stage specific inhibition assay relative to control; assay type: functional
[2] = test system: Plasmodium falciparum; assay: Antiplasmodial activity against chloroquine-sensitive Plasmodium falciparum 3D7 infected in type B+ human erythrocytes assessed as inhibition of trophozoite stage parasite after 18 hrs followed by incubation in drug-free medium for 48 hrs by stage specific inhibition assay relative to control; assay type: functional
[3] = test system: Plasmodium falciparum; assay: Antiplasmodial activity against chloroquine-sensitive Plasmodium falciparum 3D7 infected in type B+ human erythrocytes assessed as inhibition of schizont stage parasite after 12 hrs followed by incubation in drug-free medium for 48 hrs by stage specific inhibition assay relative to control; assay type: functional
[4] = test system: Plasmodium falciparum; assay: Antiplasmodial activity against chloroquine-sensitive Plasmodium falciparum 3D7 infected in type B+ human erythrocytes assessed as reduction of hemozoin formation at IC50 after 48 hrs relative to control; assay type: functional; set-up: scale not given: the % may be the effect or the level left
[5] = test system: Plasmodium falciparum; assay: Antiplasmodial activity against chloroquine-sensitive Plasmodium falciparum 3D7 infected in type B+ human erythrocytes assessed as inhibition of sorbitol-induced hemolysis at 10 mM after 15 min by spectrophotometry; assay type: functional; set-up: scale not given: the % may be the effect or the level left
[6] = test system: Plasmodium falciparum; assay: Antiplasmodial activity against chloroquine-sensitive Plasmodium falciparum 3D7 infected in type B+ human erythrocytes assessed as inhibition of parasitemia after 48 hrs by Giemsa staining; assay type: functional, organism-based; conditions: 3D7, 48 h
[7] = test system: Plasmodium falciparum; assay: Antiplasmodial activity against chloroquine-sensitive Plasmodium falciparum 3D7 infected in type B+ human erythrocytes assessed as inhibition of sorbitol-induced hemolysis at 5 nM after 15 min by spectrophotometry; assay type: functional; set-up: scale not given: the % may be the effect or the level left
[8] = test system: Plasmodium falciparum; assay: Antiplasmodial activity against chloroquine-sensitive Plasmodium falciparum 3D7 infected in type B+ human erythrocytes assessed as inhibition of sorbitol-induced hemolysis at 10 uM after 15 min by spectrophotometry; assay type: functional; set-up: scale not given: the % may be the effect or the level left
[9] = test system: Plasmodium falciparum; assay: Antiplasmodial activity against chloroquine-sensitive Plasmodium falciparum 3D7 infected in type B+ human erythrocytes assessed as inhibition of sorbitol-induced hemolysis at 10 nM after 15 min by spectrophotometry; assay type: functional; set-up: scale not given: the % may be the effect or the level left

| Structure (SMILES) | inhibition (INH) [1] [%] | inhibition (INH) [2] [%] | inhibition (INH) [3] [%] | Activity [4] [%] | Activity [5] [%] | further results |
| --- | --- | --- | --- | --- | --- | --- |
| O=C(/C=C/c1ccc(Cl)cc1)c1ccc(-n2cncn2)cc1 | 48.7 | 65.8 | 40.1 | 47.8 | 36.1 |  |
| O=C(/C=C/c1ccc(Cl)cc1)c1ccc(-n2cccc2)cc1 | 51.4 | 61.5 | 48.9 | 48.8 | 85.9 |  |
| O=C(/C=C/c1ccc(Cl)cc1)c1ccc(-n2nnc3ccccc32)cc1 | 47.9 | 70.9 | 41 | 47.7 | 90 |  |
| C[C@@H]1CC[C@H]2[C@@H](C)C(=O)O[C@@H]3O[C@@]4(C)CC[C@@H]1[C@]32OO4 [ARTEMISININ] |  |  |  | 48.3 |  | IC50 [6]: 4 nM; Activity [7]: 90.9% |
| NS(=O)(=O)c1cc(C(=O)O)c(NCc2ccco2)cc1Cl [FUROSEMIDE] |  |  |  |  |  | Activity [8]: 56.3% |
| C=CC(C)(C)c1cc(/C=C/C(=O)c2ccc(O)cc2)c(OC)cc1O [LICOAGROCHACONE A] |  |  |  |  |  | IC50 [6]: 4.2 nM |
| CCc1nc(N)nc(N)c1-c1ccc(Cl)cc1 [PYRIMETHAMINE] |  |  |  | 56.3 |  | Activity [9]: 92.2% |

Source: ChEMBL document CHEMBL1154149, “Antimalarial pharmacodynamics of chalcone derivatives in combination with artemisinin against Plasmodium falciparum in vitro” (Eur J Med Chem, 2009)
